Results published in ChEMBL document CHEMBL1130886, “Serine derived NK1 antagonists. 1: The effect of modifications to the serine substituents” (Bioorg Med Chem Lett, 1998).

Target: Substance-P receptor (Homo sapiens, UniProt P25103)
Assay: Ability to displace [125I]-substance P from hNK1 receptor in chinese hamster ovarian (CHO) cells
Assay type: cell-based

Chain of Substance-P receptor (P25103 whole entry): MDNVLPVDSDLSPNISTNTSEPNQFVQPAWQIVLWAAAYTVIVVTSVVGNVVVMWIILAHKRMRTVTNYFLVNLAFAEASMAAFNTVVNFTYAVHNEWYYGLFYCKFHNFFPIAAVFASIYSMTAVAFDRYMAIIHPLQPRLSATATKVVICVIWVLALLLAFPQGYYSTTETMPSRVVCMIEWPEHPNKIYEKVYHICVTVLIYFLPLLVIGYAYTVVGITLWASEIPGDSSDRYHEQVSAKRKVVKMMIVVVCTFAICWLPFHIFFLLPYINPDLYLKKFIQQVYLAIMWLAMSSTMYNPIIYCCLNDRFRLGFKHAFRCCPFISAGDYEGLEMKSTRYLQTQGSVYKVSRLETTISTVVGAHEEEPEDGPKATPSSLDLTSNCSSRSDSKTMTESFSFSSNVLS

Going from `CS(=O)(=O)N1CC2(CCN(C(=O)[C@H](COCc3ccccc3)NCc3ccc(Cl)c(Cl)c3)CC2)c2ccccc21` to `CS(=O)(=O)N1CC2(CCN(C(=O)[C@@H](COCc3ccccc3)NCc3ccc(Cl)c(Cl)c3)CC2)c2ccccc21`, the IC50 rises from 18 nM to 42 nM (2.3-fold).

First: CS(=O)(=O)N1CC2(CCN(C(=O)C(COCc3ccccc3)NCc3ccccc3Cl)CC2)c2ccccc21 (centres undefined)
Second: CS(=O)(=O)N1CC2(CCN(C(=O)[C@H](COCc3ccccc3Cl)NCc3ccccc3)CC2)c2ccccc21
The IC50 of the first is 15-fold higher: 542 nM for the first, 36 nM for the second. The second is the more potent here.

Going from `CS(=O)(=O)N1CC2(CCN(C(=O)C(COCc3ccccc3)NS(=O)(=O)c3ccc(Cl)c(Cl)c3)CC2)c2ccccc21` (centres undefined) to `CS(=O)(=O)N1CC2(CCN(C(=O)C(COCc3ccccc3)NC(=O)c3ccc(Cl)c(Cl)c3)CC2)c2ccccc21` (centres undefined), the IC50 rises from 88 nM to 260 nM (3-fold). The first is the more potent here.

First: CS(=O)(=O)N1CC2(CCN(C(=O)[C@H](COCc3cc(C(F)(F)F)cc(C(F)(F)F)c3)NC(=O)c3ccc(Cl)c(Cl)c3)CC2)c2ccccc21
Second: CS(=O)(=O)N1CC2(CCN(C(=O)C(COCc3ccccc3)NC(=O)Cc3ccc(Cl)c(Cl)c3)CC2)c2ccccc21 (centres undefined)
The IC50 of the first is 30-fold higher: 1300 nM for the first, 43 nM for the second. The second is the more potent here.

Compared with `CS(=O)(=O)N1CC2(CCN(C(=O)C(COCc3ccccc3)NCc3c(Cl)cccc3Cl)CC2)c2ccccc21` (centres undefined), `CS(=O)(=O)N1CC2(CCN(C(=O)C(COCc3ccccc3)NCc3cccc(Cl)c3Cl)CC2)c2ccccc21` (centres undefined) is 5.8-fold lower in IC50: 895 nM for the first, 153 nM for the second.

`Cc1cccc(CNC(COCc2ccccc2)C(=O)N2CCC3(CC2)CN(S(C)(=O)=O)c2ccccc23)c1` (centres undefined) and `CS(=O)(=O)N1CC2(CCN(C(=O)C(COCc3ccccc3)NCc3cccc(Cl)c3)CC2)c2ccccc21` (centres undefined) are within 1.5-fold of each other in IC50: 55 nM for the first, 58 nM for the second.

First: CS(=O)(=O)N1CC2(CCN(C(=O)[C@H](COCc3ccccc3Cl)NCc3ccc(Cl)c(Cl)c3)CC2)c2ccccc21
Second: CS(=O)(=O)N1CC2(CCN(C(=O)C(COCc3ccccc3)NCc3ccc(Cl)c(Cl)c3)CC2)c2ccccc21 (centres undefined)
The IC50 of the first is 2.8-fold higher: 34 nM for the first, 12 nM for the second.

First: CS(=O)(=O)N1CC2(CCN(C(=O)C(COCc3ccccc3)NCc3ccc(Cl)cc3)CC2)c2ccccc21 (centres undefined)
Second: CS(=O)(=O)N1CC2(CCN(C(=O)[C@H](COCc3ccc(Cl)cc3)NCc3ccccc3)CC2)c2ccccc21
The IC50 of the first is 4.1-fold higher: 27 nM for the first, 6.6 nM for the second. The second is the more potent here.

Going from `CS(=O)(=O)N1CC2(CCN(C(=O)C(CCc3ccc(Cl)c(Cl)c3)NCc3ccccc3)CC2)c2ccccc21` (centres undefined) to `CS(=O)(=O)N1CC2(CCN(C(=O)C(CCCc3ccc(Cl)c(Cl)c3)NCc3ccccc3)CC2)c2ccccc21` (centres undefined), the IC50 falls from 455 nM to 3.3 nM (140-fold).

First: CS(=O)(=O)N1CC2(CCN(C(=O)C(COCc3ccccc3)NCc3cccc(Br)c3)CC2)c2ccccc21 (centres undefined)
Second: CS(=O)(=O)N1CC2(CCN(C(=O)C(COCc3ccccc3)NCc3cccc(F)c3)CC2)c2ccccc21 (centres undefined)
The IC50 of the first is 2.6-fold lower: 60 nM for the first, 157 nM for the second.

First: CS(=O)(=O)N1CC2(CCN(C(=O)[C@H](COCc3cccc(Cl)c3)NCc3ccc(Cl)c(Cl)c3)CC2)c2ccccc21
Second: CS(=O)(=O)N1CC2(CCN(C(=O)[C@H](COCc3ccc(Cl)cc3)NCc3ccc(Cl)c(Cl)c3)CC2)c2ccccc21
The IC50 of the first is 2.1-fold lower: 11 nM for the first, 23 nM for the second. The first is the more potent here.

`COc1ccc(CNC(COCc2ccccc2)C(=O)N2CCC3(CC2)CN(S(C)(=O)=O)c2ccccc23)cc1` (centres undefined) and `COc1cccc(CNC(COCc2ccccc2)C(=O)N2CCC3(CC2)CN(S(C)(=O)=O)c2ccccc23)c1` (centres undefined) are within 1.5-fold of each other in IC50: 57 nM for the first, 71 nM for the second.

Compared with `CS(=O)(=O)N1CC2(CCN(C(=O)[C@H](CSCc3ccc(Cl)c(Cl)c3)NCc3ccccc3)CC2)c2ccccc21`, `CS(=O)(=O)N1CC2(CCN(C(=O)C(CNCc3ccc(Cl)c(Cl)c3)NCc3ccccc3)CC2)c2ccccc21` (centres undefined) is 1.8-fold higher in IC50: 13 nM for the first, 24 nM for the second.

`CS(=O)(=O)N1CC2(CCN(C(=O)[C@H](CS(=O)(=O)Cc3ccc(Cl)c(Cl)c3)NCc3ccccc3)CC2)c2ccccc21` and `CN(Cc1ccc(Cl)c(Cl)c1)CC(NCc1ccccc1)C(=O)N1CCC2(CC1)CN(S(C)(=O)=O)c1ccccc12` (centres undefined) are within 1.5-fold of each other in IC50: 63 nM for the first, 54 nM for the second.

Going from `CS(=O)(=O)N1CC2(CCN(C(=O)[C@H](COCc3cccc(Cl)c3)NCc3ccccc3)CC2)c2ccccc21` to `CS(=O)(=O)N1CC2(CCN(C(=O)C(COCc3ccccc3)NCc3ccccc3)CC2)c2ccccc21` (centres undefined), the IC50 rises from 7.7 nM to 80 nM (10-fold).

First: COc1ccccc1CNC(COCc1ccccc1)C(=O)N1CCC2(CC1)CN(S(C)(=O)=O)c1ccccc12 (centres undefined)
Second: CS(=O)(=O)N1CC2(CCN(C(=O)C(COCc3ccccc3)NCc3ccc(Cl)cc3Cl)CC2)c2ccccc21 (centres undefined)
The IC50 of the first is 1.6-fold higher: 163 nM for the first, 100 nM for the second.

First: CN(C)c1ccc(CNC(COCc2ccccc2)C(=O)N2CCC3(CC2)CN(S(C)(=O)=O)c2ccccc23)cc1 (centres undefined)
Second: CS(=O)(=O)N1CC2(CCN(C(=O)C(COCc3ccccc3)NCc3cccc(C#N)c3)CC2)c2ccccc21 (centres undefined)
The IC50 of the first is 4.6-fold lower: 33 nM for the first, 152 nM for the second.

Compared with `CS(=O)(=O)N1CC2(CCN(C(=O)[C@H](COCc3ccc(Cl)c(Cl)c3)NCc3ccc(Cl)c(Cl)c3)CC2)c2ccccc21`, `CS(=O)(=O)N1CC2(CCN(C(=O)C(COCc3ccccc3)NCc3cc(Cl)cc(Cl)c3)CC2)c2ccccc21` (centres undefined) is 46-fold higher in IC50: 1.7 nM for the first, 79 nM for the second.

`CS(=O)(=O)N1CC2(CCN(C[C@H](COCc3ccc(Cl)c(Cl)c3)NCc3ccccc3)CC2)c2ccccc21` and `CS(=O)(=O)N1CC2(CCN(C(=O)C(COCc3ccccc3)NCc3cccc([N+](=O)[O-])c3)CC2)c2ccccc21` (centres undefined) are within 1.5-fold of each other in IC50: 170 nM for the first, 120 nM for the second.

`CS(=O)(=O)N1CC2(CCN(C(=O)C(N)COCc3ccccc3)CC2)c2ccccc21` (centres undefined) was tested, and the IC50 was 2000 nM.
